The text below walks through data of paper PMC8721871 (Biochemistry, 2021).

As usually defined, the Km is the concentration of substrate that gives half-maximal velocity.

Format in all cases: biochemical, Prescottella equi
Common to all, as to conditions: 50 mM HEPES pH 7.5, 25 °C (Methods: 2.5 mM HEPES)

Assay [1] deals with ReNHase (Fe-type nitrile hydratase). Nature of the assay: spectrophotometric, […],4-dihydroxybenzamide formation at […] nm.
For assay [2] the test system is unchanged. Nature of the assay: spectrophotometric, 3-hydroxybenzamide formation at […] nm.
For assay [3] the test system is unchanged. Nature of the assay: spectrophotometric, acetamide formation at […] nm.
For assay [4] the test system is unchanged. Nature of the assay: spectrophotometric, acrylamide formation at […] nm.
Assay [5] shares this test system. Briefly: spectrophotometric, benzamide formation at […] nm.

Take `N#Cc1ccc(O)c(O)c1` [3,4-dihydroxybenzonitrile]: the Km in assay [1] is 168 ± 21 µM.

On to `N#Cc1cccc(O)c1` [3-hydroxybenzonitrile], for which, in assay [2], the Km worked out at 77 ± 17 µM.

For the molecule `CC#N` [acetonitrile], the “Km (μM)” value in assay [3] is listed as 25 000 ± 2000 μM.

In the case of `C=CC#N` [acrylonitrile], in assay [4], the “Km (μM)” value is 25 000 ± 11 000 μM.

As for `N#Cc1ccccc1` [benzonitrile], in assay [5], the Km came to 13.2 ± 1.4 µM.
